Measurements reported in patent US12338484B2, “FRET biosensor for detecting and reporting NAD+/NADH ratio changes” (Sartorius BioAnalytical Instruments, Inc., priority 2022, dated 2025).

Legend:
Format in all cases: biochemical
[1] = molecular target: T1, Thermus aquaticus T-Rex FRET fusion, initial construct #3, mKOk-Rex(78-211)-Rex(78-189)-cpmEGFP(145/146)-Rex(190-211), SEQ ID NO: 163 (Thermus aquaticus, UniProt Q9X2V5, INS189[…]); experiment: FRET response (emission spectra) of purified initial construct #3 in absence or presence of 40 uM NADH; parameters: key: Good response: Constructs with very clear and robust spectra separation; Poor response: those with noticeable but small spectra separation; No response: those having no spectra separation
T1 construct: His-tag purified from E. coli
Description: (§1) 16 initial FRET constructs (See Table 3) were constructed using expression vector pET28c with a T7 promoter and lac operator and expressed in E. coli. Cells were collected and lysed using a commercially-available lysis buffer. Proteins of interest were isolated from the lysates using Ni-NTA magnetic beads. Eluted proteins were subjected to buffer exchange and final protein concentrating. To test performance of the initial FRET constructs, their emission spectra was recorded on a plate reader in absence or presence of 40 uM NADH. Resulting emission spectra with or without the ligand were normalized and overlaid for each construct. Constructs with very clear and robust spectra separation were labeled as having “good response”, those with noticeable but small spectra separation were labeled as having “poor response”, and finally those having no spectra separation were labeled as having “no response”.

[2] = molecular target: Thermus aquaticus T-Rex FRET fusion, initial construct #10, Rex(A)-cpmEGFP(145/146)-Rex(B)-mKOk, SEQ ID NO: 170 (Thermus aquaticus, UniProt Q9X2V5, E116G/F189I/K117M/K204T/K47E/R46D/R58D/S30A/Y98W); experiment: FRET response (emission spectra) of purified initial construct #10 in absence or presence of 40 uM NADH; parameters: key: Good response: Constructs with very clear and robust spectra separation; Poor response: those with noticeable but small spectra separation; No response: those having no spectra separation
Description: as §1

[3] = molecular target: T2, Thermus aquaticus T-Rex FRET fusion, initial construct #2, Rex(78-189)-cpmEGFP(145/146)-Rex(190-211)-Rex(78-211)-mKOk, SEQ ID NO: 162 (Thermus aquaticus, UniProt Q9X2V5, INS189[…]); experiment: FRET response (emission spectra) of purified initial construct #2 in absence or presence of 40 uM NADH; parameters: key: Good response: Constructs with very clear and robust spectra separation; Poor response: those with noticeable but small spectra separation; No response: those having no spectra separation
T2 construct: His-tag purified from E. coli
Description: as §1

[4] = molecular target: Thermus aquaticus T-Rex FRET fusion, initial construct #15, mEGFP-Rex(A)-mKOk-Rex(B), SEQ ID NO: 175 (Thermus aquaticus, UniProt Q9X2V5, E116G/F189I/K117M/K204T/K47E/R46D/R58D/S30A/Y98W); experiment: FRET response (emission spectra) of purified initial construct #15 in absence or presence of 40 uM NADH; parameters: key: Good response: Constructs with very clear and robust spectra separation; Poor response: those with noticeable but small spectra separation; No response: those having no spectra separation
Description: as §1

[5] = molecular target: T3, Thermus aquaticus T-Rex FRET fusion, initial construct #8, Rex(78-211)-Rex(78-189)-cpmEGFP(173/174)-Rex(190-211)-mKOk, SEQ ID NO: 168 (Thermus aquaticus, UniProt Q9X2V5, INS189[…]); experiment: FRET response (emission spectra) of purified initial construct #8 in absence or presence of 40 uM NADH; parameters: key: Good response: Constructs with very clear and robust spectra separation; Poor response: those with noticeable but small spectra separation; No response: those having no spectra separation
T3 construct: His-tag purified from E. coli
Description: as §1

[6] = molecular target: T4, Thermus aquaticus T-Rex FRET fusion, initial construct #5, mKOk-Rex(78-189)-cpmEGFP(173/174)-Rex(190-211)-Rex(78-211), SEQ ID NO: 165 (Thermus aquaticus, UniProt Q9X2V5, INS189[…]); experiment: FRET response (emission spectra) of purified initial construct #5 in absence or presence of 40 uM NADH; parameters: key: Good response: Constructs with very clear and robust spectra separation; Poor response: those with noticeable but small spectra separation; No response: those having no spectra separation
T4 construct: His-tag purified from E. coli
Description: as §1

[7] = molecular target: Thermus aquaticus T-Rex FRET biosensor construct #14 (Rex(A)-mEGFP-Rex(B)-mKOk, SEQ ID NO: 174), library variant 2-F3, SEQ ID NO: 15 (Thermus aquaticus, UniProt Q9X2V5, E116G/F189I/K117M/K47E/R46D/R58D/S30A/Y98W); experiment: Signal window in bacterial lysates, FRET ratio in presence or absence of 200 uM NADH (Table 2); details: clone 2-F3, SEQ ID NO: 15
Description: (§2) In specific embodiments, the fusion protein comprises the amino acid sequence selected from the group consisting of SEQ ID NO: 13-93, 95-154, and 191-193; the sequences are provided in Table 2 and the examples.
(§3) Protein library DNA was generated following cloning that assembled pieces of DNA that were generated using PCRs with mixtures of primers. DNA was transformed into E. coli, and the first round of protein library expression was done in bacterial colonies on agar plates. The colonies, each expressing different library members, were imaged, and then classified into groups based on their FRET ratio signal. Colonies from different groups were inoculated into 96-deep-well plates for further protein expression in liquid culture. The original construct that was used to generate the library (e.g., construct #14 in Table 2) was also inoculated on the same plates, along with non-expressing bacteria. The latter served as a negative control.

[8] = molecular target: Thermus aquaticus T-Rex FRET biosensor construct #14 (Rex(A)-mEGFP-Rex(B)-mKOk, SEQ ID NO: 174), library variant 4-F1, SEQ ID NO: 18 (Thermus aquaticus, UniProt Q9X2V5, E116G/F189I/K117M/K47E/R46D/R58D/S30A/Y98W); experiment: as above; details: clone 4-F1, SEQ ID NO: 18
Description: as §2, §3

[9] = molecular target: Thermus aquaticus T-Rex FRET biosensor construct #14 (Rex(A)-mEGFP-Rex(B)-mKOk, SEQ ID NO: 174), library variant 3-C8, SEQ ID NO: 14 (Thermus aquaticus, UniProt Q9X2V5, E116G/F189I/K117M/K47E/R46D/R58D/S30A/Y98W); experiment: as above; details: clone 3-C8, SEQ ID NO: 14
Description: as §2, §3

[10] = molecular target: Thermus aquaticus T-Rex FRET biosensor construct #14 (Rex(A)-mEGFP-Rex(B)-mKOk, SEQ ID NO: 174), library variant 1-G8, SEQ ID NO: 16 (Thermus aquaticus, UniProt Q9X2V5, E116G/F189I/K117M/K47E/R46D/R58D/S30A/Y98W); experiment: as above; details: clone 1-G8, SEQ ID NO: 16
Description: as §2, §3

[11] = molecular target: Thermus aquaticus T-Rex FRET fusion, initial construct #16, Rex(A)-mKOk-Rex(B)-mEGFP, SEQ ID NO: 176 (Thermus aquaticus, UniProt Q9X2V5, E116G/F189I/K117M/K204T/K47E/R46D/R58D/S30A/Y98W); experiment: FRET response (emission spectra) of purified initial construct #16 in absence or presence of 40 uM NADH; parameters: key: Good response: Constructs with very clear and robust spectra separation; Poor response: those with noticeable but small spectra separation; No response: those having no spectra separation
Description: as §1

Compound: NC(=O)C1=CN([C@@H]2O[C@H](COP(=O)(O)OP(=O)(O)OC[C@H]3O[C@@H](n4cnc5c(N)ncnc54)[C@H](O)[C@@H]3O)[C@@H](O)[C@H]2O)C=CC1 [NADH]
- FRET response to NADH [1]: No response
- FRET response to NADH [2]: Good response
- FRET response to NADH [3]: Poor response
- FRET response to NADH [4]: No response
- FRET response to NADH [5]: No response
- FRET response to NADH [6]: No response
- Signal window (ex mode), measured in lysates [7]: 0.34
- Signal window (ex mode), measured in lysates [8]: 0.33
- Signal window (ex mode), measured in lysates [9]: 0.4
- Signal window (ex mode), measured in lysates [10]: 0.34
- FRET response to NADH [11]: Good response
